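How tested: cells in 96-well plates exposed to compound for 48 hours at five concentrations. The concentration for full growth arrest is given as TGI.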
What was measured:
Assay in all cases: NCI tumour cell line growth inhibition, 48 h
786-0 renal = test system: 786-0 renal
A498 renal = test system: A498 renal
A549 NSCLC = test system: A549 NSCLC
ACHN renal = test system: ACHN renal
BT-549 breast = test system: BT-549 breast
CAKI-1 renal = test system: CAKI-1 renal
CCRF-CEM leukemia = test system: CCRF-CEM leukemia
COLO 205 colon = test system: COLO 205 colon
DU-145 prostate = test system: DU-145 prostate
EKVX NSCLC = test system: EKVX NSCLC
HCC-2998 colon = test system: HCC-2998 colon
HCT-116 colon = test system: HCT-116 colon
HCT-15 colon = test system: HCT-15 colon
HL-60(TB) leukemia = test system: HL-60(TB) leukemia
HOP-62 NSCLC = test system: HOP-62 NSCLC
HOP-92 NSCLC = test system: HOP-92 NSCLC
HS 578T breast = test system: HS 578T breast
HT29 colon = test system: HT29 colon
IGROV1 ovarian = test system: IGROV1 ovarian
KM12 colon = test system: KM12 colon
LOX IMVI melanoma = test system: LOX IMVI melanoma
M14 melanoma = test system: M14 melanoma
MALME-3M melanoma = test system: MALME-3M melanoma
MCF7 breast = test system: MCF7 breast
MDA-MB-231 breast = test system: MDA-MB-231 breast
MDA-MB-435 = test system: MDA-MB-435
MDA-N = test system: MDA-N
MOLT-4 leukemia = test system: MOLT-4 leukemia
NCI-H226 lung = test system: NCI-H226 lung
NCI-H23 lung = test system: NCI-H23 lung
NCI-H460 lung = test system: NCI-H460 lung
NCI-H522 lung = test system: NCI-H522 lung
NCI/ADR-RES ovarian = test system: NCI/ADR-RES ovarian
OVCAR-3 ovarian = test system: OVCAR-3 ovarian
OVCAR-4 ovarian = test system: OVCAR-4 ovarian
OVCAR-5 ovarian = test system: OVCAR-5 ovarian
OVCAR-8 ovarian = test system: OVCAR-8 ovarian
PC-3 prostate = test system: PC-3 prostate
RPMI-8226 leukemia = test system: RPMI-8226 leukemia
SF-268 CNS = test system: SF-268 CNS
SF-295 CNS = test system: SF-295 CNS
SF-539 CNS = test system: SF-539 CNS
SK-MEL-2 melanoma = test system: SK-MEL-2 melanoma
SK-MEL-28 melanoma = test system: SK-MEL-28 melanoma
SK-MEL-5 melanoma = test system: SK-MEL-5 melanoma
SK-OV-3 ovarian = test system: SK-OV-3 ovarian
SN12C renal = test system: SN12C renal
SNB-19 CNS = test system: SNB-19 CNS
SR leukemia = test system: SR leukemia
SW-620 colon = test system: SW-620 colon
T-47D breast = test system: T-47D breast
TK-10 renal = test system: TK-10 renal
U251 CNS = test system: U251 CNS
UACC-257 melanoma = test system: UACC-257 melanoma
UACC-62 melanoma = test system: UACC-62 melanoma
UO-31 renal = test system: UO-31 renal
K-562 leukemia = test system: K-562 leukemia
RXF 393 renal = test system: RXF 393 renal
SNB-75 CNS = test system: SNB-75 CNS

`CC(CCOc1ccc2ccc(=O)oc2c1)C1=CC(=O)C(C)(C)O1` (stereo not given) showed a TGI (786-0 renal) of 7.69 µM, a TGI (A498 renal) of 5.52 µM and a TGI (A549 NSCLC) of 10.6 µM. The TGI (ACHN renal) was 12.4 µM, the TGI (BT-549 breast) was 11 µM and the TGI (CAKI-1 renal) was 8.75 µM. For the same compound, the TGI (CCRF-CEM leukemia) was 3.18 µM, the TGI (COLO 205 colon) was 5.97 µM and the TGI (DU-145 prostate) was 12.5 µM. For the same compound, the TGI (EKVX NSCLC) was 15.1 µM, the TGI (HCC-2998 colon) was 5.71 µM and the TGI (HCT-116 colon) was 10 µM. It also gave a TGI (HCT-15 colon) of 5.68 µM, a TGI (HL-60(TB) leukemia) of 5.31 µM and a TGI (HOP-62 NSCLC) of 21.3 µM. It also gave a TGI (HOP-92 NSCLC) of 13.2 µM, a TGI (HS 578T breast) of 6.84 µM and a TGI (HT29 colon) of 10.4 µM. For the same compound, the TGI (IGROV1 ovarian) was 14.8 µM, the TGI (KM12 colon) was 7.41 µM and the TGI (LOX IMVI melanoma) was over 100 µM. The TGI (M14 melanoma) was 26.5 µM, the TGI (MALME-3M melanoma) was 10.8 µM and the TGI (MCF7 breast) was 14.7 µM. It also gave a TGI (MDA-MB-231 breast) of 12.5 µM, a TGI (MDA-MB-435) of 11.5 µM and a TGI (MDA-N) of 16.4 µM. The TGI (MOLT-4 leukemia) was 6.37 µM, the TGI (NCI-H226 lung) was 22.5 µM and the TGI (NCI-H23 lung) was 11.9 µM. It also gave a TGI (NCI-H460 lung) of 3.94 µM, a TGI (NCI-H522 lung) of 3.11 µM and a TGI (NCI/ADR-RES ovarian) of 5.62 µM. It also gave a TGI (OVCAR-3 ovarian) of 11.6 µM, a TGI (OVCAR-4 ovarian) of 22.5 µM and a TGI (OVCAR-5 ovarian) of 49.9 µM. For the same compound, the TGI (OVCAR-8 ovarian) was 4.45 µM, the TGI (PC-3 prostate) was 23.5 µM and the TGI (RPMI-8226 leukemia) was 7.31 µM. The TGI (SF-268 CNS) was 5.28 µM, the TGI (SF-295 CNS) was 14.3 µM and the TGI (SF-539 CNS) was 4.37 µM. The TGI (SK-MEL-2 melanoma) was 26.3 µM, the TGI (SK-MEL-28 melanoma) was 12.2 µM and the TGI (SK-MEL-5 melanoma) was 24 µM. For the same compound, the TGI (SK-OV-3 ovarian) was 14.2 µM, the TGI (SN12C renal) was 4.09 µM and the TGI (SNB-19 CNS) was 18.2 µM. For the same compound, the TGI (SR leukemia) was 3.42 µM, the TGI (SW-620 colon) was 4.93 µM and the TGI (T-47D breast) was 6.06 µM. The TGI (TK-10 renal) was 13.3 µM, the TGI (U251 CNS) was 10.3 µM and the TGI (UACC-257 melanoma) was 20.6 µM. The TGI (UACC-62 melanoma) was 14.9 µM and the TGI (UO-31 renal) was 12.1 µM.

In the case of `COc1cc(-c2nc3ccc(N4CCN(C)CC4)cc3[nH]2)c(OC)c2[nH]c(CO)nc12`, the TGI (786-0 renal) is reported as over 100 µM, the TGI (A498 renal) is reported as over 100 µM and the TGI (A549 NSCLC) is reported as over 100 µM. It also gave a TGI (ACHN renal) of over 100 µM, a TGI (BT-549 breast) of over 100 µM and a TGI (CAKI-1 renal) of over 100 µM. The TGI (CCRF-CEM leukemia) was 44.5 µM, the TGI (COLO 205 colon) was over 100 µM and the TGI (DU-145 prostate) was over 100 µM. It also gave a TGI (EKVX NSCLC) of over 100 µM, a TGI (HCT-116 colon) of over 100 µM and a TGI (HCT-15 colon) of over 100 µM. For the same compound, the TGI (HL-60(TB) leukemia) was 37.2 µM, the TGI (HOP-62 NSCLC) was over 100 µM and the TGI (HOP-92 NSCLC) was over 100 µM. For the same compound, the TGI (HS 578T breast) was over 100 µM, the TGI (HT29 colon) was over 100 µM and the TGI (IGROV1 ovarian) was over 100 µM. For the same compound, the TGI (K-562 leukemia) was over 100 µM, the TGI (KM12 colon) was over 100 µM and the TGI (LOX IMVI melanoma) was over 100 µM. The TGI (M14 melanoma) was over 100 µM, the TGI (MALME-3M melanoma) was over 100 µM and the TGI (MCF7 breast) was over 100 µM. For the same compound, the TGI (MDA-MB-231 breast) was over 100 µM, the TGI (MDA-MB-435) was over 100 µM and the TGI (MDA-N) was over 100 µM. For the same compound, the TGI (MOLT-4 leukemia) was over 100 µM, the TGI (NCI-H226 lung) was over 100 µM and the TGI (NCI-H23 lung) was over 100 µM. It also gave a TGI (NCI-H460 lung) of over 100 µM, a TGI (NCI-H522 lung) of over 100 µM and a TGI (NCI/ADR-RES ovarian) of over 100 µM. The TGI (OVCAR-3 ovarian) was over 100 µM, the TGI (OVCAR-4 ovarian) was over 100 µM and the TGI (OVCAR-5 ovarian) was over 100 µM. For the same compound, the TGI (OVCAR-8 ovarian) was over 100 µM, the TGI (PC-3 prostate) was over 100 µM and the TGI (RPMI-8226 leukemia) was over 100 µM. For the same compound, the TGI (RXF 393 renal) was over 100 µM, the TGI (SF-268 CNS) was over 100 µM and the TGI (SF-295 CNS) was over 100 µM. It also gave a TGI (SF-539 CNS) of over 100 µM, a TGI (SK-MEL-2 melanoma) of over 100 µM and a TGI (SK-MEL-28 melanoma) of over 100 µM. For the same compound, the TGI (SK-MEL-5 melanoma) was over 100 µM, the TGI (SK-OV-3 ovarian) was over 100 µM and the TGI (SN12C renal) was over 100 µM. For the same compound, the TGI (SNB-19 CNS) was over 100 µM, the TGI (SNB-75 CNS) was over 100 µM and the TGI (SR leukemia) was over 100 µM. It also gave a TGI (SW-620 colon) of over 100 µM, a TGI (T-47D breast) of over 100 µM and a TGI (TK-10 renal) of over 100 µM. It also gave a TGI (U251 CNS) of over 100 µM, a TGI (UACC-257 melanoma) of over 100 µM and a TGI (UACC-62 melanoma) of over 100 µM. It also gave a TGI (UO-31 renal) of over 100 µM.

With `C[N+](C)(CCNc1ccc(NCC[N+](C)(C)Cc2ccc([N+](=O)[O-])cc2)c2c1C(=O)c1ccccc1C2=O)Cc1ccc([N+](=O)[O-])cc1` the TGI (786-0 renal) was over 100 µM, the TGI (A498 renal) was over 100 µM and the TGI (A549 NSCLC) was over 100 µM. For the same compound, the TGI (ACHN renal) was over 100 µM, the TGI (BT-549 breast) was over 100 µM and the TGI (CAKI-1 renal) was over 100 µM. It also gave a TGI (CCRF-CEM leukemia) of over 100 µM, a TGI (COLO 205 colon) of over 100 µM and a TGI (DU-145 prostate) of over 100 µM. The TGI (EKVX NSCLC) was over 100 µM, the TGI (HCC-2998 colon) was over 100 µM and the TGI (HCT-116 colon) was over 100 µM. For the same compound, the TGI (HCT-15 colon) was over 100 µM, the TGI (HL-60(TB) leukemia) was over 100 µM and the TGI (HOP-62 NSCLC) was over 100 µM. The TGI (HOP-92 NSCLC) was over 100 µM, the TGI (HS 578T breast) was over 100 µM and the TGI (HT29 colon) was over 100 µM. For the same compound, the TGI (IGROV1 ovarian) was over 100 µM, the TGI (K-562 leukemia) was over 100 µM and the TGI (KM12 colon) was over 100 µM. It also gave a TGI (LOX IMVI melanoma) of over 100 µM, a TGI (M14 melanoma) of over 100 µM and a TGI (MALME-3M melanoma) of over 100 µM. It also gave a TGI (MCF7 breast) of over 100 µM, a TGI (MDA-MB-231 breast) of over 100 µM and a TGI (MDA-MB-435) of over 100 µM. The TGI (MDA-N) was over 100 µM, the TGI (MOLT-4 leukemia) was over 100 µM and the TGI (NCI-H226 lung) was over 100 µM. For the same compound, the TGI (NCI-H23 lung) was over 100 µM, the TGI (NCI-H460 lung) was over 100 µM and the TGI (NCI-H522 lung) was over 100 µM. It also gave a TGI (NCI/ADR-RES ovarian) of over 100 µM, a TGI (OVCAR-3 ovarian) of over 100 µM and a TGI (OVCAR-4 ovarian) of over 100 µM. For the same compound, the TGI (OVCAR-5 ovarian) was over 100 µM, the TGI (OVCAR-8 ovarian) was over 100 µM and the TGI (PC-3 prostate) was over 100 µM. It also gave a TGI (SF-268 CNS) of over 100 µM, a TGI (SF-295 CNS) of over 100 µM and a TGI (SF-539 CNS) of over 100 µM. The TGI (SK-MEL-2 melanoma) was over 100 µM, the TGI (SK-MEL-5 melanoma) was over 100 µM and the TGI (SK-OV-3 ovarian) was over 100 µM. For the same compound, the TGI (SN12C renal) was over 100 µM, the TGI (SNB-19 CNS) was over 100 µM and the TGI (SNB-75 CNS) was over 100 µM. For the same compound, the TGI (SR leukemia) was over 100 µM, the TGI (SW-620 colon) was over 100 µM and the TGI (T-47D breast) was over 100 µM. For the same compound, the TGI (TK-10 renal) was over 100 µM, the TGI (U251 CNS) was over 100 µM and the TGI (UACC-257 melanoma) was over 100 µM. For the same compound, the TGI (UACC-62 melanoma) was over 100 µM and the TGI (UO-31 renal) was over 100 µM.

From PubChem BioAssay (NCI)
